Assay results as given in a melting point compilation (Tetko et al.; mined from patent text by program, amines drawn as free bases though some values may be those of a salt).

Structure (SMILES) | melting point
O=C(c1ccc(Cl)cc1)c1cc(-c2ccc(Cl)cc2)c(N2CCOCC2)s1 | 145 to 149 °C
C=CCOC(=O)CCC(C)(c1ccc(O)cc1)c1ccc(O)cc1 | 83 to 85 °C
CC(C)N=C(N)Nc1ccnc(OCCCO)n1 | 181 to 183 °C
Fc1ccc(N2CCN(Cc3c[nH]c4ncccc34)CC2)cc1 | 214 to 216 °C
C=CC(=O)Oc1ccc(C(C)(c2ccc(OC(=O)C=C)cc2)c2ccc(OC(=O)C=C)cc2)cc1 | 130 °C
NC(=NOCC1CC1)c1c(F)cccc1C(F)(F)F | 63 to 64 °C
CC(C)(C)c1cc(C(=O)c2nccs2)cc(C(C)(C)C)c1O | 106 to 108 °C
CC1(CO)Cn2cc([N+](=O)[O-])nc2O1 (configuration not stated) | 162 to 163 °C
COC(=O)c1cc2c3ccccc3n(C(=O)c3ccccc3)c2s1 | 150 to 151 °C
Cc1sc(C(=O)O)cc1NC(=O)Cc1ccccc1 | 249 to 250 °C
O=C(O)c1ccc(S(F)(F)(F)(F)F)cc1 | 188 to 190 °C
CNC[C@@H]1CN(c2nc3c(cc2F)c(=O)c(C(=O)O)cn3C2CC2)C[C@@H]1F (relative stereo) | 230 to 240 °C
CC(C)CCC(O)C(CC1CCCCC1)NC(=O)C(Cc1c[nH]cn1)N(C)C(=O)C(Cc1ccccc1)OC(=O)N(C)CCN(C)C(=O)C(C)C (configuration not stated) | 68 to 72 °C
CCn1ncc2c(-c3cncc(C)c3)c(/C=C/C(=O)O)c(COC)nc21 | 195 to 196 °C
Clc1cc(CCc2ccccn2)c2oc(-c3ccc4[nH]nnc4c3)nc2c1 | 242 to 244 °C
NC(=O)c1cccc(OCCCCCBr)c1 | 98 to 99 °C
Cc1cc(=O)[nH]c2ccc(Cn3ccnc3)cc12 | 266 °C
COc1ccc(C2c3cc(OC)c(OC)cc3CCN2C(=O)NCCN(C(C)C)C(C)C)cc1OC (configuration not stated) | 114 to 115 °C
Cc1c(Sc2ccc(Cl)cc2)nn(-c2cccc(Cl)c2)c(=O)c1C#N | 150 to 151 °C
FC(F)(F)CSc1nc(-c2ccc(Cl)cc2)c(-c2ccc(Cl)cc2)[nH]1 | 212 to 213 °C
OC(c1cccnc1)c1cc(F)ccc1F (configuration not stated) | 79 to 80 °C
CCOC(=O)C1(c2ccccc2)CCN(CC(=O)O)CC1 | 148 to 150 °C
CCOC(=O)c1cc(C(C)(C)C)n(-c2ccc(S(C)(=O)=O)cc2)n1 | 175 to 178 °C
O=C1NC(=O)C(c2ccc(-c3ccccc3)cc2)(N2CCN(c3ccc(N4C(=O)CCC4=O)cc3)CC2)C(=O)N1 | 310 to 311 °C

Structure (SMILES) | melting point
CC(C)Oc1cc(CCCOc2ncccc2CC(=O)O)n(Cc2ccc(Cl)cc2OC(C)C)n1 | 82 to 84 °C
CCN1C(=O)C(=C2C=C(N3CCCC3)CC(C)(C)C2)SC1=S | 234 to 235 °C
CCOC(=O)CN(N)C(=O)Nc1ccccc1C(=O)C1CCCCC1 | 108 to 110 °C
NC(Cc1ccccc1)c1ccc(Cl)cc1 (configuration not stated) | 35 to 36 °C
Cc1nc(N2CCN(Cc3ccc(C(=O)N4CCCCC4)cc3)C2=O)sc1-c1ccn[nH]1 | 156 to 157 °C
O=C(c1ccccc1Cl)c1cc(Cl)ccc1C#CCN1C(=O)c2ccccc2C1=O | 144 to 145 °C
OP(O)C(NC(c1ccccc1)c1ccccc1)C1CCCCC1 (configuration not stated) | 199 °C
Nc1cc(-c2nnc(SCc3ccc(F)cc3)o2)ccn1 | 200 to 201 °C
N#Cc1cccc2c1CCCc1ccccc1-2 | 109 to 111 °C
O=C(Nc1ccc(-c2c[nH]c(=O)cn2)cc1)c1ccccc1 | > 300 °C
COc1ccc(Br)cc1-c1nc2ccc(OC(F)(F)F)cc2[nH]1 | 175 to 178 °C
O=C(Nc1c[nH]nc1C(=O)NCc1ccco1)c1ccccn1 | 198 to 199 °C
CC(=O)CCc1nsc2ccc(-n3c(=O)cc(C(F)(F)F)n(C)c3=O)cc12 | 198 to 199 °C
CC1(C)CN=C2N(C1)c1ccc(C#N)cc1C21OCCCO1 | 178 to 184 °C
CC(C)Nc1ccc(NC(=O)C2(C)CC2)cc1C(F)(F)F | 100 to 102 °C
COc1ccc(CN(C)C(=O)CCCc2ccc([N+](=O)[O-])cc2)cc1OC | 90 °C
NC1N=C(c2ccccc2)c2ccccc2N(CC(F)(F)F)C1=O (configuration not stated) | 141 to 143 °C
CCNc1c(C(=O)OCC)c(C)nc(Cl)c1[N+](=O)[O-] | 36 to 37 °C
Cc1nnc(F)c(-c2c(F)cc(F)cc2F)c1-c1cccs1 | 71 to 74 °C
Cc1cc(CC(=O)O)cc2c1[nH]c1ccccc12 | 177 to 179 °C
CC1COc2c(OC3CCN(C)CC3)c(F)cc3c(=O)c(C(=O)O)cn1c23 (configuration not stated) | 234 to 238 °C
BrC(Br)Cc1cccc2[nH]c(-c3ccccc3)cc12 | 106 °C
COC(C(N)=O)(C(N)=O)c1ccc(Cl)c(Cl)c1 | 211 to 213 °C
O=C(CCCN1C(=O)c2ccccc2C1=O)N1CCC(C2c3ncc(Br)cc3CCc3cc(Cl)cc(Br)c32)CC1 (single isomer, unassigned; (+)) | 100 to 102 °C

Structure (SMILES) | melting point
CCOC(=O)c1cnn2c1c(O)nc1ccccc12 | 249 to 251 °C
CC(CO)N1CC(COc2cccc(Cl)c2)OC1=O (configuration not stated) | 76 to 78 °C
COc1ccc(-n2nc(C#N)cc2-c2ccc(S(C)(=O)=O)cc2)cc1Br | 184 to 186 °C
COc1nc(C)c([N+](=O)[O-])cc1C | 85.9 to 90.5 °C
O=C(C=Cc1ccc(N2CCCC2)cc1)c1ccc2c(c1)CCCC2 | 167 to 169 °C
O=C(NC1CCC(CCN2CCN(c3nccc4c3OCC4)CC2)CC1)C1CCCO1 (racemic) | 145 °C
Cc1cc(Cn2cc(C(F)(F)C(F)(F)F)c(C(F)(F)C(F)(F)F)n2)ccc1NC(=O)c1cccc(Br)c1C(=O)N[C@@H](C)CS(C)=O (some centres not stated) | 127 to 129 °C
COC(=O)c1cc(O)c2ccc(OCc3ccccc3)cc2c1 | 179 to 180 °C
O=C(O)c1cc(C(=O)O)cc(P(=O)(O)O)c1 | 360 °C
Cc1cc(-c2ccc(C(F)(F)F)cc2)cnc1N | 74 °C
COc1ccc(-c2cc(=O)c3ccc(OCCCBr)cc3o2)cc1OC | 148 to 149 °C
COc1ccc2c(c1)OC(C(=O)O)Oc1ccccc1C2 (configuration not stated) | 149 to 153 °C
CSc1cccc2nc(SCCN3CCN(CC(=O)Nc4c(C(C)C)cccc4C(C)C)CC3)oc12 | 120 to 121 °C
O=C(O)c1c(F)cccc1-c1ccccc1 | 122 to 125 °C
O=C(OCC1OC(OC(=O)c2ccccc2)C(O)C1OC(=O)c1ccccc1)c1ccccc1 (configuration not stated) | 137 to 138 °C
COc1ccc(-c2ccnn2-c2ccc(N3C[C@H](CNC(C)=O)OC3=O)cc2F)cc1OC | 154 to 156 °C
CCc1ccc(-c2ccc(Cl)cc2)cc1 | 103 °C
CC(C#N)c1cc(O)cc2cc(-c3ccc(O)cc3)oc12 (configuration not stated) | 183 to 185 °C
CC(=O)N(C(C)=O)c1ccc(C=Cc2ccc3ccccc3n2)cc1 | 148 to 150 °C
CCOC(=O)c1cnc2c3cc(NC(=O)Nc4ccccc4)ccc3c(C)cn2c1=O | > 300 °C
COCc1nc2cc3c(cc2[nH]1)NC(=O)C3(C)C | 203 to 205 °C
CC(=O)c1ccc(CCC(=O)O)cc1 | 118 to 119 °C
CCOC(=O)Cn1c(=O)n(Cc2ccc(Cl)c(Cl)c2)c(=O)c2c(C)c(Br)sc21 | 166 to 167 °C
C=COCCn1cccc1-c1nc(-c2ccc(OC)cc2)c(-c2ccc(OC)cc2)s1 | 81.5 to 84.5 °C
